Results published in the supplement of paper PMC10307832.

What was measured:
Experiment in all cases: relative viability (nuclei count vs DMSO), 5 days (fraction); higher = more cells survive
AT9283 = compound: O=C(Nc1c[nH]nc1-c1nc2ccc(CN3CCOCC3)cc2[nH]1)NC1CC1 [AT9283]
Summary of the method: (§1)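 After an overnight hold at 37 °C, lung cancer cell lines in 1536-well plates were pinned with five library-drug doses (not always all listed), each √10 from the next, on vehicle-anchored plates. The cells stayed 5 days without fresh medium, then a one-step fix, permeabilisation and Hoechst stain preceded 4× imaging and MetaXpress nuclear counts. A plate passed only with control CV under 25% and at least one doubling. Viability is the median, over plates, of treated-well nuclei relative to vehicle-well nuclei.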

Erlotinib = compound: C#Cc1cccc(Nc2ncnc3cc(OCCOC)c(OCCOC)cc23)c1 [Erlotinib]
Summary of the method: as §1

Phenformin = compound: N=C(N)NC(=N)NCCc1ccccc1 [Phenformin] (anchor plate); settings: 250 µM
Summary of the method: as §1

Erlotinib + Pictilisib = compound: C#Cc1cccc(Nc2ncnc3cc(OCCOC)c(OCCOC)cc23)c1 [Erlotinib] + CS(=O)(=O)N1CCN(Cc2cc3nc(-c4cccc5[nH]ncc45)nc(N4CCOCC4)c3s2)CC1 [Pictilisib] (partner 1 µM)
Summary of the method: (§2)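 Relative viability was taken as the ratio of nuclei in treated wells to nuclei in vehicle wells. Lung cancer cell lines in 1536-well plates received compounds by pin tool one day after seeding, either one drug alone or a fixed anchor-drug dose plus five library-drug doses (not always all listed) in √10 steps. Nuclei were counted on 4× images after 5 days of treatment, and values are medians of duplicate plates.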

Erlotinib + Crizotinib = compound: C#Cc1cccc(Nc2ncnc3cc(OCCOC)c(OCCOC)cc23)c1 [Erlotinib] + C[C@@H](Oc1cc(-c2cnn(C3CCNCC3)c2)cnc1N)c1c(Cl)ccc(F)c1Cl [Crizotinib] (partner 1 µM)
Summary of the method: as §2

Row | Cell Line | relative viability (AT9283; 0.003 µM) | relative viability (AT9283; 0.03 µM) | relative viability (AT9283; 0.09487 µM) | relative viability (AT9283; 0.3 µM) | relative viability (Erlotinib; 0.02 µM) | relative viability (Erlotinib; 0.2 µM) | relative viability (Erlotinib; 0.6325 µM) | relative viability (Erlotinib; 2 µM) | relative viability (Phenformin) | relative viability (Erlotinib + Pictilisib; first compound 0.02 µM) | relative viability (Erlotinib + Pictilisib; first compound 0.2 µM) | relative viability (Erlotinib + Pictilisib; first compound 0.6325 µM) | relative viability (Erlotinib + Pictilisib; first compound 2 µM) | relative viability (Erlotinib + Crizotinib; first compound 0.02 µM) | relative viability (Erlotinib + Crizotinib; first compound 0.2 µM) | relative viability (Erlotinib + Crizotinib; first compound 0.6325 µM) | relative viability (Erlotinib + Crizotinib; first compound 2 µM)
1 | H3255 | 0.998 | 0.95 | 0.714 | 0.177 | 0.946 | 0.709 | 0.514 | 0.225 | 0.386 | 0.497 | 0.159 | 0.118 | 0.0937 | 0.999 | 0.509 | 0.305 | 0.136
2 | NCI-H1437 | 0.95 | 0.976 | 0.55 | 0.22 | 1.01 | 1.03 | 1.03 | 0.958 | 0.296 | 0.431 | 0.408 | 0.482 | 0.347 | 1.01 | 1.02 | 1.12 | 0.883
3 | HCC-44 | 0.988 | 1 | 0.614 | 0.335 | 0.994 | 0.961 | 1.01 | 0.975 | 0.218 | 0.662 | 0.696 | 0.752 | 0.523 | 0.797 | 0.895 | 0.843 | 0.798
4 | CAL-12T | 1.06 | 0.828 | 0.451 | 0.227 | 1 | 0.785 | 0.618 | 0.521 | 0.597 | 0.277 | 0.388 | 0.419 | 0.274 | 0.964 | 0.636 | 0.356 | 0.249
5 | NCI-H23 | 0.895 | 0.71 | 0.432 | 0.306 | 0.959 | 0.757 | 1.16 | 0.979 | 0.749 | 0.56 | 0.517 | 0.61 | 0.464 | 0.565 | 0.481 | 0.601 | 0.433
6 | ChaGo-K-1 | 0.849 | 0.91 | 0.451 | 0.396 | 0.977 | 1.05 | 1.04 | 0.903 | 0.514 | 0.472 | 0.659 | 1.05 | 0.508 | 1.24 | 1.16 | 1.2 | 1.1
7 | NCI-H1563 | 0.995 | 0.815 | 0.661 | 0.617 | 1.03 | 0.898 |  | 0.953 | 0.681 | 0.63 | 0.706 | 0.679 | 0.636 | 0.85 | 0.845 | 0.802 | 0.804
8 | NCI-H1915 | 0.925 | 0.929 | 0.461 | 0.256 | 1.07 | 1.01 |  | 0.977 | 0.359 |  |  | 1.07 | 0.948 | 0.948 | 0.832 | 0.919 | 0.86
9 | LU99A | 0.88 | 0.477 | 0.253 | 0.186 | 0.932 | 0.952 | 0.913 | 0.916 | 0.886 | 0.302 | 0.31 | 0.347 | 0.281 | 0.612 | 0.607 | 0.64 | 0.432
10 | LCLC-103H | 0.885 | 1.02 | 0.926 | 0.376 | 1.03 | 0.919 | 1 | 0.929 | 0.348 | 0.614 | 0.587 | 0.753 | 0.538 | 1.04 | 1.09 | 1.16 | 1.04
